Results published in US20230219921A1, “KCNT1 INHIBITORS AND METHODS OF USE” (Praxis Precision Medicines, Inc., priority 2020, published 2023).

Molecular target: T1, KCNT1 (KNa1.1, Slack) (Homo sapiens, UniProt Q5JUK3)
T1 construct: expressed in transfected cells; host or cells: HEK-TREX (tetracycline-inducible HEK cell line)
T1 sequence (Q5JUK3 1-1230): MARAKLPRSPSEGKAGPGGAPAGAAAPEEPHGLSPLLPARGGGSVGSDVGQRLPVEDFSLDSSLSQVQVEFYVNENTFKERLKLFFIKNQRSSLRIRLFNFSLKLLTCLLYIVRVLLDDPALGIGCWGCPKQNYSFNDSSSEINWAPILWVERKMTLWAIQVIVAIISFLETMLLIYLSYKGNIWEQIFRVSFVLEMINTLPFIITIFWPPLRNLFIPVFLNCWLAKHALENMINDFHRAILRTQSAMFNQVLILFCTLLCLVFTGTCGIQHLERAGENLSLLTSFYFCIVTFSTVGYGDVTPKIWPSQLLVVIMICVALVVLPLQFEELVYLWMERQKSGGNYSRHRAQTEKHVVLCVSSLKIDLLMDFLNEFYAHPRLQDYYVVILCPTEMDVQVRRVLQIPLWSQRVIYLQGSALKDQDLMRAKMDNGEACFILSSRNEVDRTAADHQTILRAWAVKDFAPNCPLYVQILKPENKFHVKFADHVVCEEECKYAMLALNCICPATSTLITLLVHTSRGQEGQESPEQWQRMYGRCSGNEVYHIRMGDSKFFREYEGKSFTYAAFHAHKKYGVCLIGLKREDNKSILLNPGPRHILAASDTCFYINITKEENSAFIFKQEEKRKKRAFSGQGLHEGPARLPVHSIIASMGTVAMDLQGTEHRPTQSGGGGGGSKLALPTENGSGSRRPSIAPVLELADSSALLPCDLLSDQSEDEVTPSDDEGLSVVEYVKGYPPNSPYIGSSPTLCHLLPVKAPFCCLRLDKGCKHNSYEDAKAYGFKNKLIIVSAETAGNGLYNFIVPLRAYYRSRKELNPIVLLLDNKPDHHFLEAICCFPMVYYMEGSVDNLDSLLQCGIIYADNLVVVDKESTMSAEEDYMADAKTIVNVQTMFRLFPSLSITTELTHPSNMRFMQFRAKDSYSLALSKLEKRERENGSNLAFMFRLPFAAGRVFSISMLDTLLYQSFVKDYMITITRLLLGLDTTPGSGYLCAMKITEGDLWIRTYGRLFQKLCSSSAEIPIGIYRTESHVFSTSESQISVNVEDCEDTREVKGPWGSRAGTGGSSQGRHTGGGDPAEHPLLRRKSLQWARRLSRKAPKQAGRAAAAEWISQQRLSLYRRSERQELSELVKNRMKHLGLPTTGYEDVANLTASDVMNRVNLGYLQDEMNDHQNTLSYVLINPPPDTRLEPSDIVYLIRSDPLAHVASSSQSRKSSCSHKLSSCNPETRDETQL
Experiment: KCNT1 patch clamp assay (SyncroPatch 384PE automated patch clamp)
Format: cell-based
Conditions: tetracycline inducible cell line (HEK-TREX); perforated patch mode; step from -80 mV to 0 mV; room temperature; read-out: KCNT1-WT IC50
Protocol: Inhibition of KCNT1 (KNa1.1, Slack) was evaluated using a tetracycline inducible cell line (HEK-TREX). Currents were recorded using the SyncroPatch 384PE automated, patch clamp system. Pulse generation and data collection were performed with PatchController384 V1.3.0 and DataController384 V1.2.1 (Nanion Technologies). The access resistance and apparent membrane capacitance were estimated using built-in protocols. Current were recorded in perforated patch mode (10 μM escin) from a population of cells. The cells were lifted, triturated, and resuspended at 800,000 cells/ml. The cells were allowed to recover in the cell hotel prior to experimentation. Currents were recorded at room temperature. The external solution contained the following (in mM): NaCl 105, NMDG 40, KCl 4, MgCl2 1, CaCl2 5 and HEPES 10 (pH=7.4, Osmolarity ˜300 mOsm). The extracellular solution was used as the wash, reference and compound delivery solution. The internal solution contained the following (in mM): NaCl 70, KF 70, KCl 10, EGTA 5, HEPES 5 and Escin 0.01 (pH=7.2, Osmolarity ˜295 mOsm). Escin is made at a 5 mM stock in water, aliquoted, and stored at −20° C. The compound plate was created at 2× concentrated in the extracellular solution. The compound was diluted to 1:2 when added to the recording well. The amount of DMSO in the extracellular solution was held constant at the level used for the highest tested concentration. A holding potential of −80 mV with a 100 ms step to 0 mV was used. Mean current was measured during the step to 0 mV. […] The average mean current from 3 sweeps was calculated and the % inhibition of each compound was calculated. The % Inhibition as a function of the compound concentration was fit with a Hill equation to derive IC50, slope, min and max parameters. If KCNT1 inhibition was less than 50% at the highest tested concentration or if an IC50 could not be calculated, then a percent inhibition was reported in place of the IC50.
In this table, “A” indicates IC50 of less than or equal to 1 μM; “B” indicates inhibition of between 1 μM to 20 μM; and “C” indicates inhibition of greater than or equal to 20 μM.

Row | SMILES | IC50 [µM]
1 | CC(C)(C#N)c1ccc(CNC(=O)c2ccc(S(C)(=O)=O)s2)cc1 [Compound 39, N-(4-(2-cyanopropan-2-yl)benzyl)-5-(methylsulfonyl)thiophene-2-carboxamide] | 1 to 20
2 | CNS(=O)(=O)c1ccc(C(=O)NCc2ccc(OC(C)C)cc2)s1 [Compound 27, N-(4-isopropoxybenzyl)-5-(N-methylsulfamoyl)thiophene-2-carboxamide] | ≥ 20
3 | CS(=O)(=O)c1ccc(C(=O)NCc2ccc(OCC(F)(F)F)cc2)s1 [Compound 34, 5-(methylsulfonyl)-N-(4-(2,2,2-trifluoroethoxy)benzyl)thiophene-2-carboxamide] | 1 to 20
4 | CNS(=O)(=O)c1ccc(C(=O)NCc2ccc(C#N)cc2)s1 [Compound 17, N-(4-cyanobenzyl)-5-(N-methylsulfamoyl)thiophene-2-carboxamide] | 1 to 20
5 | CC(C)Nc1ccc(CNC(=O)c2ccc(S(C)(=O)=O)s2)cc1 [Compound 41, N-(4-(isopropylamino)benzyl)-5-(methylsulfonyl)thiophene-2-carboxamide] | ≥ 20
6 | Cc1cc(C(F)(F)F)ncc1CNC(=O)c1ccc(S(C)(=O)=O)s1 [Compound 54, N-((4-methyl-6-(trifluoromethyl)pyridin-3-yl)methyl)-5-(methylsulfonyl)thiophene-2-carboxamide] | 1 to 20
7 | CS(=O)(=O)c1ccc(C(=O)NCc2ccc(C3CC3)cc2)s1 [Compound 31, N-(4-cyclopropylbenzyl)-5-(methylsulfonyl)thiophene-2-carboxamide] | ≤ 1
8 | CNS(=O)(=O)c1ccc(C(=O)NCc2ccc(Cl)cc2O)s1 [Compound 14, N-(4-chloro-2-hydroxybenzyl)-5-(N-methylsulfamoyl)thiophene-2-carboxamide] | ≤ 1
9 | CNS(=O)(=O)c1ccc(C(=O)NCc2ccc(OCC(F)(F)F)cc2)s1 [Compound 35, 5-(N-methylsulfamoyl)-N-(4-(2,2,2-trifluoroethoxy)benzyl)thiophene-2-carboxamide] | 1 to 20
10 | CC(C)S(=O)(=O)c1ccc(C(=O)NCc2ccc(C(F)(F)F)cc2)s1 [Compound 50, 5-(isopropylsulfonyl)-N-(4-(trifluoromethyl)benzyl)thiophene-2-carboxamide] | ≤ 1
11 | CNS(=O)(=O)c1ccc(C(=O)NCc2ccc(C(F)(F)F)cc2)s1 [Compound 29, 5-(N-methylsulfamoyl)-N-(4-(trifluoromethyl)benzyl)thiophene-2-carboxamide] | ≤ 1
12 | CS(=O)(=O)c1ccc(C(=O)NCc2ccc(N3CCCC3)cc2)s1 [Compound 23, 5-(methylsulfonyl)-N-(4-(pyrrolidin-1-yl)benzyl)thiophene-2-carboxamide] | ≥ 20
13 | O=C(NCc1ccc(Cl)cc1Cl)c1ccc(S(=O)(=O)C2CC2)s1 [Compound 15, 5-(Cyclopropylsulfonyl)-N-(2,4-dichlorobenzyl)thiophene-2-carboxamide] | ≤ 1
14 | CC(C)Oc1ccc(CNC(=O)c2ccc(S(C)(=O)=O)s2)cc1 [Compound 25, N-(4-isopropoxybenzyl)-5-(methylsulfonyl)thiophene-2-carboxamide] | ≥ 20
15 | CNS(=O)(=O)c1ccc(C(=O)NCc2ccc(Cl)cc2C)s1 [Compound 9, N-(4-chloro-2-methylbenzyl)-5-(N-methylsulfamoyl)thiophene-2-carboxamide] | ≤ 1

Continued, values first:

Row | IC50 [µM] | SMILES
16 | ≤ 1 | CNS(=O)(=O)c1ccc(C(=O)N[C@H](C)c2ccc(Cl)cc2)s1 [Compound 4, (R)—N-(1-(4-chlorophenyl)ethyl)-5-(N-methylsulfamoyl)thiophene-2-carboxamide]
17 | ≤ 1 | CNS(=O)(=O)c1ccc(C(=O)NCc2ccc(C(F)(F)F)cc2F)s1 [Compound 43, N-(2-fluoro-4-(trifluoromethyl)benzyl)-5-(N-methylsulfamoyl)thiophene-2-carboxamide]
18 | ≤ 1 | CNS(=O)(=O)c1ccc(C(=O)NCc2ccc(C(F)(F)F)cc2C)s1 [Compound 45, N-(2-methyl-4-(trifluoromethyl)benzyl)-5-(N-methylsulfamoyl)thiophene-2-carboxamide]
19 | ≤ 1 | Cc1cc(C(F)F)ccc1CNC(=O)c1ccc(S(C)(=O)=O)s1 [Compound 53, N-(4-(difluoromethyl)-2-methylbenzyl)-5-(methylsulfonyl)thiophene-2-carboxamide]
20 | ≤ 1 | CNS(=O)(=O)c1ccc(C(=O)NCc2ccc(C3(C(F)(F)F)CC3)cc2)s1 [Compound 36, 5-(N-methylsulfamoyl)-N-(4-(1-(trifluoromethyl)cyclopropyl)benzyl)thiophene-2-carboxamide]
21 | ≤ 1 | COCCS(=O)(=O)c1ccc(C(=O)NCc2ccc(C(F)(F)F)cc2)s1 [Compound 52, 5-((2-methoxyethyl)sulfonyl)-N-(4-(trifluoromethyl)benzyl)thiophene-2-carboxamide]
22 | ≤ 1 | CNS(=O)(=O)c1ccc(C(=O)N[C@@H](C)c2ccc(Cl)cc2)s1 [Compound 5, (S)—N-(1-(4-chlorophenyl)ethyl)-5-(N-methylsulfamoyl)thiophene-2-carboxamide]
23 | ≤ 1 | CNS(=O)(=O)c1ccc(C(=O)NCc2ccc(C)cc2)s1 [Compound 22, N-(4-methylbenzyl)-5-(N-methylsulfamoyl)thiophene-2-carboxamide]
24 | ≤ 1 | CNS(=O)(=O)c1ccc(C(=O)NCc2ccc(Cl)cc2Br)s1 [Compound 11, N-(2-bromo-4-chlorobenzyl)-5-(N-methylsulfamoyl)thiophene-2-carboxamide]
25 | ≤ 1 | CNS(=O)(=O)c1ccc(C(=O)NCc2ccc(Cl)cc2C2CC2)s1 [Compound 12, N-(4-chloro-2-cyclopropylbenzyl)-5-(N-methylsulfamoyl)thiophene-2-carboxamide]
26 | ≤ 1 | CNS(=O)(=O)c1ccc(C(=O)NCc2ccc(C(C)C)cc2)s1 [Compound 19, N-(4-isopropylbenzyl)-5-(N-methylsulfamoyl)thiophene-2-carboxamide]
27 | ≤ 1 | CNS(=O)(=O)c1ccc(C(=O)NCc2ccc(Br)cc2)s1 [Compound 21, N-(4-bromobenzyl)-5-(N-methylsulfamoyl)thiophene-2-carboxamide]
28 | ≤ 1 | O=C(NCc1ccc(C(F)(F)F)cc1)c1ccc(S(=O)(=O)C2CC2)s1 [Compound 47, 5-(cyclopropylsulfonyl)-N-(4-(trifluoromethyl)benzyl)thiophene-2-carboxamide]
29 | ≤ 1 | CS(=O)(=O)c1ccc(C(=O)NCc2ccc(C(F)(F)F)cc2F)s1 [Compound 42, N-(2-fluoro-4-(trifluoromethyl)benzyl)-5-(methylsulfonyl)thiophene-2-carboxamide]
30 | ≤ 1 | Cc1cc(C(F)(F)F)ccc1CNC(=O)c1ccc(S(C)(=O)=O)s1 [Compound 44, N-(2-methyl-4-(trifluoromethyl)benzyl)-5-(methylsulfonyl)thiophene-2-carboxamide]
